Laboratory results: US7815905B2, “Methods of increasing insulin sensitivity or decreasing insulin secretion by administering corticotropin releasing factor receptor-2 inhibitors” (Research Development Foundation, priority 2006, dated 2010)
Entries after “also recorded” stand apart in the source; their conditions may differ.

Legend:
CRFR2 = biological target: T1, CRFR2 (Homo sapiens, UniProt Q13324); details: Rivier et al. 2002; cited from earlier work
T1 sequence (Q13324 1-411): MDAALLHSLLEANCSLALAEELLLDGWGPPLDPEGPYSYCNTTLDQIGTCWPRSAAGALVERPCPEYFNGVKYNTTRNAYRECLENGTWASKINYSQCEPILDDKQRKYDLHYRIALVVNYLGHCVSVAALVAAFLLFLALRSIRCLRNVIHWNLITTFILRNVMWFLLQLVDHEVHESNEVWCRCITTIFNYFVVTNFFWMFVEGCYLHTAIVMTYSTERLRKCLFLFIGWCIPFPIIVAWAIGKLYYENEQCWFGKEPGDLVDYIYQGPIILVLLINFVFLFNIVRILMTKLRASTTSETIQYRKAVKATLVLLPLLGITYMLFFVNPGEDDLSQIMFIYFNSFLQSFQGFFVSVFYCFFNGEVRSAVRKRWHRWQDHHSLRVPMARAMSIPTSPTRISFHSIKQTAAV

isolated rat islets [1] = assay: Insulin secretion from isolated rat islets; type: cell-based; details: isolated rat islets; for insulin secretion induced by 16.8 mM glucose: pretreated
Description: FIG. 4a-b: The effect of CRFR2 antagonist on insulin secretion in isolated rat islets. (a) The effect of astressin2B (Ast2-B) on insulin secretion in response to glucose in isolated rat islets. […] The asterisk indicates a statistically significant difference between results from the control versus Ast2-B. (b) Isolated rat isles were pre-treated with anti-Ucn 3 IgG or control IgG followed by addition of indicated concentration of glucose. Y-axis indicates insulin secretion from the treated islets. The double asterisks indicate a statistically significant difference between the indicated treatments. […]
To assess the effect of CRFR2 antagonism on islet cell function secretion of insulin from isolated rat islets was studied. […] Thus, activation of CRFR2 by endogenous ligands is involved in insulin secretion induced by high levels of glucose.
In order to determine the role of Ucn 3 in glucose induced insulin secretion, isolated rat islets were pretreated with an anti-Ucn 3 IgG prior to glucose treatment.

male rats = assay: Glucose induced insulin release in vivo in male rats; design: species or system rat
Description: FIG. 9a-c: The effects of CRFR2 signaling on insulin secretion. […] Plasma insulin (b) and glucose (c) levels in male rats treated with vehicle or Ast2-B (0.09-9 nmol/kg). *, P<0.05 vs. vehicle.
In order to determine whether blocking of CRFR2 function also modulates glucose induced insulin release in vivo, various doses of Ast2-B (0.09-9 nmol/kg) or vehicle were injected intravenously into male rats through a jugular vein cannula 20 min before injection of a glucose (2.8 mmol/kg) bolus.

[2] = Rivier et al., 2003; cited from earlier work
wild type mice = assay: Glucose tolerance test (GTT) in wild type mice; type: in vivo, mouse; details: fasted male wild type mice; 30 μg/kg IP 20 min prior to glucose 2 g/kg
Description: FIG. 1a-f: Metabolic phenotype of Ucn 2 null mice. […] The ability of the Ucn 2 null mice and wild type littermates to handle a glucose load was assessed using a standard glucose tolerance test (see example 1). Fasted male mice were injected intraperitoneally (IP) with glucose (2 g/kg body weight) and blood glucose levels were measured before and at 15, 30, 60, 90 and 120 min following glucose injection. […] Fasted male Ucn 2 null mice were injected IP with saline or with 0.1 μg/kg body weight Ucn 2, 20 min prior to glucose injection (2 g/kg body weight) and blood glucose levels were measured before and at 15, 30, 60 and 90 min following glucose injection. […] Fasted male wild type mice were injected IP with saline or with astressin2B (30 μg/kg body weight), 20 min prior to glucose injection (2 g/kg body weight), and blood glucose levels were measured before and at 15, 30, 60 and 90 min following glucose injection. (d) The enhanced glucose tolerance in the Ucn 2 null mice is not due to increased insulin secretion. Fasted male mice were injected with glucose (3 g/kg body weight, IP) and blood samples were collected at 2, 5, 15 and 30 min following glucose injection and insulin was measured by radioimmunoassay. […] Fasted male mice were injected with insulin (0.75 U/kg body weight, IP) and blood glucose levels were measured before and at 15, 30, 60 and 90 min following insulin injection. […]

isolated rat islets [3] = assay: Insulin secretion from isolated rat islets; type: cell-based; details: exendin-4 10 nM + 8.4 mM glucose; listed as Ast2-B

In the case of “astressin2B: CRFR2 selective antagonist; modified sauvagine polypeptide (SEQ ID NO:10), Rivier et al., 2002”, the “time of administration needed for CRFR2 antagonist activity” value (CRFR2) is listed as “active when administered concurrently with the CRFR2 agonist”, the “insulin secretion induced by 16.8 mM glucose” value (isolated rat islets [1]) is listed as “has CRFR2 antagonist activity” and the “insulin secretion induced by 16.8 mM glucose” value (isolated rat islets [1]; listed as Ast2-B) is listed as “significantly attenuated; also recorded: attenuated by Ast2-B in a dose-dependent manner”. For the same substance, the “insulin secretion induced by 16.8 mM glucose” value (isolated rat islets [1]; listed as astressin-2B) was “attenuates 16.8 mM glucose-induced insulin secretion in a dose-dependent manner”, the “insulin release induced by 2.8 mM glucose” value (isolated rat islets [1]; 2.8 mM glucose) was “did not affect” and the “insulin secretion induced by 8.4 mM glucose” value (isolated rat islets [1]) was “did not significantly modify”. The “insulin secretion induced by 8.4 mM glucose” value (isolated rat islets [1]; listed as Ast2-B) was “did not affect”, the “insulin release induced by 10 mM glucose” value (isolated rat islets [1]; 10 mM glucose) was “did not affect” and the “glucose-induced insulin secretion, highest dose compared to 0.9 nmol/kg” value (male rats; 9 nmol/kg intravenously) was “slightly less effective”. The plasma glucose levels (male rats; 0.09-9 nmol/kg intravenously 20 min before glucose 2.8 mmol/kg bolus) was “mirrored the results of insulin”, the “glucose-induced insulin secretion (plasma insulin)” value (male rats; 0.09-9 nmol/kg intravenously 20 min before glucose 2.8 mmol/kg bolus, listed as Ast2-B) was “attenuated glucose-induced insulin secretion in a dose dependent manner; also recorded: attenuates glucose induced insulin secretion” and the “crossing of the blood brain barrier” value [2] was “unlikely to cross the blood brain barrier”. For the same substance, the “glucose tolerance test profile” value (wild type mice) was “has CRFR2 antagonist activity; also recorded: mirrors that of Ucn 2 null mice; also recorded: mimics the Ucn 2 mutant mice glucose tolerance test profile” and the “Exendin-4 stimulated insulin release” value (isolated rat islets [3]) was “greatly attenuated; also recorded: the effect was attenuated”.
